Columns and labels:
[1] = target: T1, Amine oxidase [flavin-containing] B (Rattus norvegicus, UniProt P19643); test: Displacement of [14C]-beta-PEA from rat MAO-B after 20 mins by liquid scintillation counting analysis
T1 sequence (P19643 whole entry): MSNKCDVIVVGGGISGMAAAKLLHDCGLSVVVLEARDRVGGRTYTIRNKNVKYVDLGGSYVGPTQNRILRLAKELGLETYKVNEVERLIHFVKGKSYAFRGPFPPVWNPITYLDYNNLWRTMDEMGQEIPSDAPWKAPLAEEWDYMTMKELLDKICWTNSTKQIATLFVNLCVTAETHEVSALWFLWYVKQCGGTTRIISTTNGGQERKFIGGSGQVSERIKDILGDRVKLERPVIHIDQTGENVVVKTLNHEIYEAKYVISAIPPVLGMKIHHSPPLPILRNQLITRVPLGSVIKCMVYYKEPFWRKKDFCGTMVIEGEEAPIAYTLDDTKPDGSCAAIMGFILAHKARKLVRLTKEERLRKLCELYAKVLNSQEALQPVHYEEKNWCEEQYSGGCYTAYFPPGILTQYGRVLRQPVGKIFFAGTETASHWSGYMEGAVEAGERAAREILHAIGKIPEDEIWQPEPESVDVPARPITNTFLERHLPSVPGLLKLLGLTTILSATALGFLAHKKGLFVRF

[2] = target: T2, Amine oxidase [flavin-containing] A (Rattus norvegicus, UniProt P21396); test: Displacement of [14C]-5HT from rat MAO-A after 20 mins by liquid scintillation counting analysis
T2 sequence (P21396 whole entry): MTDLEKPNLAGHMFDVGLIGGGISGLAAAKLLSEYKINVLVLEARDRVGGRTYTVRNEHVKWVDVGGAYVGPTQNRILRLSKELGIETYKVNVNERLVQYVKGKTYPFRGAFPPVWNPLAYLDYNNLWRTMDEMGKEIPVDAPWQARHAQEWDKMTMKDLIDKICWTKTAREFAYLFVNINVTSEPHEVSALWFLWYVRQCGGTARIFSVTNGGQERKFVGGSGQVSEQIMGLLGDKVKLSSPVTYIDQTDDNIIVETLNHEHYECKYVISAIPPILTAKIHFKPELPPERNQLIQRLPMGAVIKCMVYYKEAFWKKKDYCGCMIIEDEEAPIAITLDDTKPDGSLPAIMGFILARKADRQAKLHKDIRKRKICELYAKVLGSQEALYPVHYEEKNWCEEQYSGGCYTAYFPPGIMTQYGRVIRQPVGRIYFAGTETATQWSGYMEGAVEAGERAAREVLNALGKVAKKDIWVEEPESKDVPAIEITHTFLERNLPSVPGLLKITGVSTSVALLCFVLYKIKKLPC

[3] = target: T3, Amine oxidase [flavin-containing] A (Homo sapiens, UniProt P21397); test: Inhibition of human recombinant MAO-A expressed in insect cell microsomes using kynuramine as substrate assessed as formation of 4-hydroxyquinoline at 100 uM by fluorometric method; design: species or system Microsome
T3 sequence (P21397 whole entry): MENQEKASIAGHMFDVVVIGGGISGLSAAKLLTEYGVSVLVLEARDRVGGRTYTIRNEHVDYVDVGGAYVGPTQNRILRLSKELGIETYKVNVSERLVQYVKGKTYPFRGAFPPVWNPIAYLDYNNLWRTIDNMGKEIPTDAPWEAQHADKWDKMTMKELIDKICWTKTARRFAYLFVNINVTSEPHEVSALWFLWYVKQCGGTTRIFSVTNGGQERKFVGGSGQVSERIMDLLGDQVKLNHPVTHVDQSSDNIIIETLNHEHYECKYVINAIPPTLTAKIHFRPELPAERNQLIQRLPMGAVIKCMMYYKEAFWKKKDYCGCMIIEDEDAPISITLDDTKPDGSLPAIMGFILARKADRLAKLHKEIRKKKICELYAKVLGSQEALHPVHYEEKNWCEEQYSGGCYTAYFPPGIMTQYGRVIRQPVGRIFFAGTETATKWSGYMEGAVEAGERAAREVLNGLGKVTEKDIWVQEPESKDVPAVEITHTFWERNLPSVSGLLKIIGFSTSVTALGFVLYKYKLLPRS

[4] = species: Homo sapiens; test: Selectivity index, ratio of IC50 for human recombinant MAO-A to IC50 for human recombinant MAO-B
[5] = target: T4, Amine oxidase [flavin-containing] B (Homo sapiens, UniProt P27338); test: Inhibition of human recombinant MAO-B expressed in insect cell microsomes using kynuramine as substrate assessed as formation of 4-hydroxyquinoline by fluorometric method; design: species or system Microsome
T4 sequence (P27338 whole entry): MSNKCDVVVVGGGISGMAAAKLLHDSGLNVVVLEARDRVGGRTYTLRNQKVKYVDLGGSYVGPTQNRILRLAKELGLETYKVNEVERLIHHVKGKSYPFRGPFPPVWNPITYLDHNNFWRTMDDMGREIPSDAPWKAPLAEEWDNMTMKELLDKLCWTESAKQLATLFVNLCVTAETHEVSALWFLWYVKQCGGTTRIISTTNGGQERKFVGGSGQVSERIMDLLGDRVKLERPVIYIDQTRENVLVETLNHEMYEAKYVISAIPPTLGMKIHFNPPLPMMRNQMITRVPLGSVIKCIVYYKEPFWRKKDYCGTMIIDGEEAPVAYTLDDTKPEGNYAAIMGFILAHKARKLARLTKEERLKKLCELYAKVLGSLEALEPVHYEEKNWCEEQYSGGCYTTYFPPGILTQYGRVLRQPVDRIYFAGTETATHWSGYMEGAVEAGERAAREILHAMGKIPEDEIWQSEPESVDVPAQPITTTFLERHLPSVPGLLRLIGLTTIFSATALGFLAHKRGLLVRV

[6] = target: T3, Amine oxidase [flavin-containing] A; test: Inhibition of human recombinant MAO-A expressed in insect cell microsomes using kynuramine as substrate assessed as formation of 4-hydroxyquinoline by fluorometric method; design: species or system Microsome

Row | Structure (SMILES) | IC50 [1] | IC50 [2] | inhibition (INH) [3] | Ratio IC50 [4] | IC50 [5] | IC50 [6]
1 | O=C(/C=C/c1ccc(O)cc1)c1ccc(O)cc1O [ISOLIQUIRITIGENIN] | 47.2 µM | 13.9 µM |  |  |  | 
2 | COc1cccc(/C=C/C(=O)c2ccc(C)o2)c1 |  |  | Not Active |  |  | 
3 | Cc1ccc(C(=O)/C=C/c2ccc(Br)cc2)o1 |  |  |  | 121 | 707 nM | 85.7 µM
4 | Cc1ccc(C(=O)/C=C/c2ccc(F)cc2)o1 |  |  |  | 20 | 924 nM | 18.6 µM
